Data as given in US7332476B2, “Pyridyl substituted ketolide antibiotics” (Novartis AG, priority 2003, dated 2008).

Columns and labels:
Assay in all cases: MIC, broth microdilution (NCCLS)
Type in all cases: cell-based
[1] = system: Streptococcus pyogenes Stpy_8668; conditions: Table 7, Strain ID E (Table 6): S. pyogenes Stpy_8668
Procedure: (§1) Strains. The bacterial isolates listed in Table 4 were cultivated from −70° C. frozen stocks by two consecutive overnight passages (P1, P2) at 35° C. on 5% blood agar (Remel, Lenexa, Kans.). Chocolate agar (Remel) is used for Haemophilus influenzae. H. influenzae and Streptococcus pneumoniae are incubated in 5-10% CO2
(§2) Drug Stock Preparation. To determine the amount of solvent to be used to give the desired final concentration, the formula “weight obtained in mg/final concentration in mg/ml” will be used. It will give the amount of solvent in ml needed to be added to give the desired concentration. For example, if 2.5 mg/ml is the desired concentration and the weight of compound is 13.7 mg, then the amount of solvent to be added is […]. Methanol is used as the solvent to dissolve the test compounds. Further dilution of stock is done in sterile, deionized water. Drug stocks are kept frozen at −70° C., protected from light.
(§3) Susceptibility Testing. MICs are determined by the broth microdilution method in accordance with the NCCLS guidelines. In brief, organism suspensions are adjusted to a 0.5 McFarland standard to yield a final inoculum between 3×10^5 and 7×10^5 CFU/ml. Drug dilutions and inocula are made in sterile, cation adjusted Mueller-Hinton Broth (CAMHB) (Remel) for all but S. pneumoniae [CAMHB with 2-5% lysed horse blood (Remel)] and H. influenzae [Haemophilus Test Medium (Remel)]. An inoculum volume of 100 μl is added to wells containing 100 μl of broth with 2-fold serial dilutions of drug. All inoculated microdilution trays are incubated in ambient air at 35° C. for 18-24 hours, except for S. pneumoniae, and H. influenzae (both at 5-10% CO2).
(§4) Following appropriate incubation, the MIC is determined and the MIC is defined as the lowest concentration of the drug that prevented visible growth.
as §1, with “8” for “4”
(§5) Following appropriate incubation, the MIC is determined and the MIC is defined as the lowest concentration of the drug that prevented visible growth. […] Antibacterial activity of representative compounds of the invention were compared against telitromycin.

[2] = system: Streptococcus pneumoniae Stpn_49619; conditions: Table 7, Strain ID F (Table 6): S. pneumoniae Stpn_49619
Procedure: as §1, §2, §3, §4
as §1, with “8” for “4”
as §5

[3] = system: Streptococcus pneumoniae Stpn_297-749; conditions: Table 7, Strain ID G (Table 6): S. pneumoniae Stpn_297-749
Procedure: as §1, §2, §3, §4
as §1, with “8” for “4”
as §5

[4] = system: Streptococcus pneumoniae Stpn_280-962; conditions: Table 7, Strain ID H (Table 6): S. pneumoniae Stpn_280-962
Procedure: as §1, §2, §3, §4
as §1, with “8” for “4”
as §5

| Compound | MIC [1] | MIC [2] | MIC [3] | MIC [4] |
| --- | --- | --- | --- | --- |
| CC[C@H]1OC(=O)[C@@](C)(F)C(=O)[C@H](C)[C@@H](OC2O[C@H](C)C[C@H](N(C)C)[C@H]2O)[C@@](C)(OC)C[C@@H](C)C(=O)[C@H](C)[C@H]2N(CCCCn3cnc(-c4ccc(C)nc4)c3)C(=O)O[C@]12CC (stereo partly drawn) [Example 30, (3aS,4R,7S,9R,10R,11S,13R,15R,15aR)-3a,4-diethyl-7-fluoro-11-methoxy-7,9,11,13,15-pentamethyl-1-{4-[4-(6-methylpyridin-3-yl)-1H-imidazol-1-yl]butyl}-2,6,8,14-tetraoxotetradecahydro-2H-oxacyclotetradecino[4,3-d][1,3]oxazol-10-yl 3,4,6-trideoxy-3-(dimethylamino)-D-xylo-hexopyranoside] | =0.05 | =0.05 | =0.05 | =0.05 |
| CC[C@H]1OC(=O)[C@H](C)C(=O)[C@H](C)[C@@H](OC2O[C@H](C)C[C@H](N(C)C)[C@H]2O)[C@@](C)(OC)C[C@@H](C)C(=O)[C@H](C)[C@H]2N(CCCCn3cnc(-c4ccncc4)c3)C(=O)O[C@]12CC (stereo partly drawn) [Example 28, (3aS,4R,7R,9R,10R,11S,13R,15R,15aR)-3a,4-DIETHYL-11-METHOXY-7,9,11,13,15-PENTAMETHYL-2,6,8,14-TETRAOXO-1-[4-(4-PYRIDIN-4-YL-1H-IMIDAZOL-1-YL)BUTYL]TETRADECAHYDRO-1H-OXACYCLOTETRADECINO[4,3-D][1,3]OXAZOL-10-YL-3,4,6-TRIDEOXY-3-(DIMETHYLAMINO)-D-XYLO-HEXOPYRANOSIDE] | =0.05 | =0.05 | =0.05 | =0.05 |
| CC[C@H]1OC(=O)[C@@](C)(F)C(=O)[C@H](C)[C@@H](OC2O[C@H](C)C[C@H](N(C)C)[C@H]2O)[C@@](C)(OC)C[C@@H](C)C(=O)[C@H](C)[C@H]2N(CCCCc3ccc4ccccc4n3)C(=O)O[C@]12CC (stereo partly drawn) [Example 19, (3aS,4R,7S,9R,10R,11S,13R,15R,15aR)-3a,4-diethyl-7-fluoro-11-methoxy-7,9,11,13,15-pentamethyl-2,6,8,14-tetraoxo-1-(4-quinolin-2-ylbutyl)tetradecahydro-2H-oxacyclotetradecino[4,3-d][1,3]oxazol-10-yl-3,4,6-trideoxy-3-(dimethylamino)-D-xylo-hexopyranoside] | – | =0.05 | =0.05 | =0.05 |
| CC[C@H]1OC(=O)[C@H](C)C(=O)[C@H](C)[C@@H](OC2O[C@H](C)C[C@H](N(C)C)[C@H]2O)[C@@](C)(OC)C[C@@H](C)C(=O)[C@H](C)[C@H]2N(CCCCn3cnc4ncccc43)C(=O)O[C@]12CC (stereo partly drawn) [Example 22, (3aS,4R,7R,9R,10R,11S,13R,15R,15aR)-3a,4-diethyl-1-[4-(1H-imidazo[4,5-b]pyridin-1-yl)butyl]-11-methoxy-7,9,11,13,15-pentamethyl-2,6,8,14-tetraoxotetradecahydro-2H-oxacyclotetradecino[4,3-d][1,3]oxazol-10-yl-3,4,6-trideoxy-3-(dimethylamino)-D-xylo-hexopyranoside] | =0.05 | =0.05 | =0.05 | =0.05 |
| CC[C@H]1OC(=O)[C@H](C)C(=O)[C@H](C)[C@@H](OC2O[C@H](C)C[C@H](N(C)C)[C@H]2O)[C@@](C)(OC)C[C@@H](C)C(=O)[C@H](C)[C@H]2N(CCCCn3cnc(-c4cncnc4)c3)C(=O)O[C@]12CC (stereo partly drawn) [Example 25, (3aS,4R,7R,9R,10R,11S,13R,15R,15aR)-3a,4-diethyl-11-methoxy-7,9,11,13,15-pentamethyl-2,6,8,14-tetraoxo-1-[4-(4-pyrimidin-5-yl-1H-imidazol-1-yl)butyl]tetradecahydro-2H-oxacyclotetradecino[4,3-d][1,3]oxazol-10-yl-3,4,6-trideoxy-3-(dimethylamino)-D-xylo-hexopyranoside] | =0.05 | =0.05 | =0.05 | =0.05 |
| CC[C@H]1OC(=O)[C@H](C)C(=O)[C@H](C)[C@@H](OC2O[C@H](C)C[C@H](N(C)C)[C@H]2O)[C@@](C)(OC)C[C@@H](C)C(=O)[C@H](C)[C@H]2N(CCCC(C)(C)n3cnc4cccnc43)C(=O)O[C@]12CC (stereo partly drawn) [Example 38, (3aS,4R,7R,9R,10R,11S,13R,15R,15aR)-3a,4-diethyl-1-[4-(3H-imidazo[4,5-b]pyridin-3-yl)-4-methylpentyl]-11-methoxy-7,9,11,13,15-pentamethyl-2,6,8,14-tetraoxotetradecahydro-2H-oxacyclotetradecino[4,3-d][1,3]oxazol-10-yl-3,4,6-trideoxy-3-(dimethylamino)-D-xylo-hexopyranoside] | =0.05 | =0.05 | =0.05 | =0.05 |
| CC[C@H]1OC(=O)[C@@](C)(F)C(=O)[C@H](C)[C@@H](OC2O[C@H](C)C[C@H](N(C)C)[C@H]2O)[C@@](C)(OC)C[C@@H](C)C(=O)[C@H](C)[C@H]2N(CCCCn3cnc4ncccc43)C(=O)O[C@]12CC (stereo partly drawn) [Example 27, (3aS,4R,7S,9R,10R,11S,13R,15R,15aR)-3a,4-diethyl-7-fluoro-1-[4-(1H-imidazo[4,5-b]pyridin-1-yl)butyl]-11-methoxy-7,9,11,13,15-pentamethyl-2,6,8,14-tetraoxotetradecahydro-2H-oxacyclotetradecino[4,3-d][1,3]oxazol-10-yl-3,4,6-trideoxy-3-(dimethylamino)-D-xylo-hexopyranoside] | =0.025 | – | =0.025 | =0.025 |
| CC[C@H]1OC(=O)[C@H](C)C(=O)[C@H](C)[C@@H](OC2O[C@H](C)C[C@H](N(C)C)[C@H]2O)[C@@](C)(OC)C[C@@H](C)C(=O)[C@H](C)[C@H]2N(CCCCn3cnc(-c4ccc(C)nc4)c3)C(=O)O[C@]12CC (stereo partly drawn) [Example 29, (3aS,4R,7R,9R,10R,11S,13R,15R,15aR)-3a,4-diethyl-11-methoxy-7,9,11,13,15-pentamethyl-1-{4-[4-(6-methylpyridin-3-yl)-1H-imidazol-1-yl]butyl}-2,6,8,14-tetraoxotetradecahydro-2H-oxacyclotetradecino[4,3-d][1,3]oxazol-10-yl-3,4,6-trideoxy-3-(dimethylamino)-D-xylo-hexopyranoside] | =0.05 | =0.05 | =0.05 | =0.05 |
| CC[C@H]1OC(=O)[C@H](C)C(=O)[C@H](C)[C@@H](OC2O[C@H](C)C[C@H](N(C)C)[C@H]2O)[C@@](C)(OC)C[C@@H](C)C(=O)[C@H](C)[C@H]2N(CCCC(C)(C)n3cnc4ncccc43)C(=O)O[C@]12CC (stereo partly drawn) [Example 37, (3aS,4R,7R,9R,10R,11S,13R,15R,15aR)-3a,4-diethyl-1-[4-(1H-imidazo[4,5-b]pyridin-1-yl)-4-methylpentyl]-11-methoxy-7,9,11,13,15-pentamethyl-2,6,8,14-tetraoxotetradecahydro-2H-oxacyclotetradecino[4,3-d][1,3]oxazol-10-yl-3,4,6-trideoxy-3-(dimethylamino)-D-xylo-hexopyranoside] | =0.05 | =0.05 | =0.05 | =0.05 |
| CC[C@H]1OC(=O)[C@H](C)C(=O)[C@H](C)[C@@H](OC2O[C@H](C)C[C@H](N(C)C)[C@H]2O)[C@@](C)(OC)C[C@@H](C)C(=O)[C@H](C)[C@H]2N(CCN(C)Cc3cccnc3)C(=O)O[C@]12CC (some centres unmarked) [Example 23] | =0.05 | =0.05 | =0.05 | =0.05 |
| CC[C@H]1OC(=O)[C@@](C)(F)C(=O)[C@H](C)[C@@H](OC2O[C@H](C)C[C@H](N(C)C)[C@H]2O)[C@@](C)(OC)C[C@@H](C)C(=O)[C@H](C)[C@H]2N(CCCCc3ccnc4ccccc34)C(=O)O[C@]12CC (stereo partly drawn) [Example 17, (3aS,4R,7S,9R,10R,11S,13R,15R,15aR)-3a,4-diethyl-7-fluoro-11-methoxy-7,9,11,13,15-pentamethyl-2,6,8,14-tetraoxo-1-(4-quinolin-4-ylbutyl)tetradecahydro-2H-oxacyclotetradecino[4,3-d][1,3]oxazol-10-yl-3,4,6-trideoxy-3-(dimethylamino)-D-xylo-hexopyranoside] | – | =0.05 | =0.05 | =0.05 |
